From patent US20100112037A1, “S1P RECEPTOR AGONISTS FOR THE TREATMENT OF CEREBRAL MALARIA” (priority 2008, published 2010)

Tests used:
[1] = Topical and transdermal administration: blood cell counts (CBC); format: in vivo, F1 hybrid mice; details: topical (200 μL of 1 mg/mL solution) and transdermal patch; measured six hours after administration; FIG. 2
Experimental: Drug-in-adhesive transdermal patches containing FTY720 were made by dissolving FTY720 in adhesive (Duro-Tak 87-2196, National Starch & Chemical Co.) at a ratio of 1 part compound to 10 parts adhesive (weight:weight). Adhesive containing FTY720 was layered onto a release liner (Scotchpak 1022 PET Film, 3M Corporation) using a Bird applicator with a 50 to 200 micron gap. Organic solvents were removed from the film by baking at 100° C. for 15 minutes. The dried adhesive was then laminated onto a backing membrane (CoTran 9720 polyethylene film, 3M Corporation).
Topical and transdermal dosage forms of FTY720 were administered to F1 hybrid mice (n=5 mice per group). The blood of the mice was collected at various time points for CBC and PK analysis.
Topical dosing of FTY720 was achieved using 200 μL of a 1 mg/mL solution composed of 70% ethanol, 29.9% water, and 0.1% DMSO.
Transdermal dosing was achieved using patches made as described above. Patches were cut from the laminate and applied to bare skin above the front shoulder of the mice. Dosage was controlled by adjusting the thickness of the compound/adhesive applied to the release liner and number or size of patches. Fur was trimmed from the site of application and then shaved to expose bare skin. To improve adhesion, the skin was further prepped by swabbing with 70% ethanol and then allowed to air dry prior to placing the patch.

[2] = test system: P. berghei ANKA; assay: Cerebral malaria model (survival of infected mice); format: in vivo, C56B1/6 mice; details: FTY720 0.3 mg/kg/day by gavage, administered one day prior to malaria infection; vs control; two independent experiments, Log-Rank Test, p=0.0002; FIG. 1
Experimental: A well characterized and widely used animal model of CM was used to test the efficacy of compounds. See, e.g., Golenser, supra, at 585. In each experiment, two groups of C56B1/6 mice were infected with 1 million parasites (P. berghei ANKA) i.p. in 500 μl of media. The first group was the control group, and the second was treated daily by gavage with FTY720 (0.3 mg/kg/day).
After at least two doses of the drug had been administered, tail vein blood was taken from the mice, and flow cytometry analysis was used to assess the levels of B and T cells, using antibodies to CD3, CD4, CD8 and CD19. The animals were monitored daily for body weight and parasitaemia, and twice daily for survival.

Compound: CCCCCCCCc1ccc(CCC(N)(CO)CO)cc1 [FTY720, 2-amino-2-[2-(4-octylphenyl)ethyl]propane-1,3-diol]
- lymphocyte count [1]: affected
- neutrophil count [1]: affected
- white blood cell count [1]: affected
- survival [2]: significant survival advantage
